{
  "source": "patent US11414379B2",
  "about": "“SPAK kinase inhibitors as neuroprotective agents” (United States Government as represented by the Department …, priority 2018, dated 2022)",
  "key": {"KCC2 pThr1007": {"system": "KCC2 pThr1007", "assay": "Phosphorylation immunoblot in KCC2-transfected HEK293 cells", "type": "cell-based, human", "details": "concentration inhibiting phosphorylation", "protocol": "(§1) HEK293 (human embryonic kidney 293) cells were cultured on 10-cm-diameter dishes in DMEM supplemented with 10% (v/v) foetal bovine serum, 2 mM L-glutamine, 100 U/ml penicillin and 0.1 mg/ml streptomycin. HEK293 cells were transfected with a mixture of 20 μl of 1 mg/ml polyethylenimine (Polysciences) and 5-10 μg of plasmid DNA as described previously (Durocher et al., 2002). 36 hours post-transfection cells were stimulated with either control isotonic or hypotonic medium for a period of 30 minutes. Cells were lysed in 0.3 mL of ice-cold lysis buffer/dish, lysates were clarified by centrifugation at 4° C. for 15 minutes at 26,000 g and the supernatant aliquots were frozen in liquid nitrogen and stored at −20° C. Protein concentrations were determined using the Bradford method. Cells were treated with the indicated concentrations of the SPAK/OSR1 inhibitors. […] Hypotonic low chloride buffer was 67.5 mM sodium-gluconate, 2.5 mM potassium-gluconate, 0.25 mM CaCl2), 0.25 mM MgCl2, 0.5 mM Na2HPO4, 0.5 mM Na2SO4 and 7.5 mM HEPES (pH 7.5).\n(§2) The membranes were incubated for 30 min with TBST (Tris-buffered saline, 0.05% Tween-20) containing 5% (w/v) skim milk. The blots were then washed six times with TBST and incubated for 1 hour at room temperature with secondary HRP-conjugated antibodies diluted 5000-fold in 5% (w/v) skim milk in TBST. After repeating the washing steps, signals were detected with enhanced chemiluminescence reagent. Immunoblots were developed using a film automatic processor (SRX-101; Konica Minolta Medical) and films were scanned at 600 dpi (PowerLook 1000; UMAX). Figures were generated using Photoshop/Illustrator (Adobe). The densities of bands were measured with ImageJ. For phospho-antibody immunoprecipitation, KCC isoforms were immunoprecipitated from indicated cell extracts. 2 mg of the indicated clarified cell extract were mixed with 15 μg of the indicated phospho-specific KCC antibody conjugated to 15 μl of protein-G-Sepharose, in the added presence of […] of the dephosphorylated form of the phosphopeptide antigen, and incubated 2 hours at 4° C. with gentle shaking. Immunoprecipitates were washed three times with 1 mL of lysis buffer containing 0.15 M NaCl and twice with 1 ml of buffer A. Bound proteins were eluted with 1×LDS sample buffer.\n(§3) HEK293 cells were transfected with a DNA construct encoding wild type N-terminally FLAG-tagged KCC2. 36 hrs post-transfection, cells were exposed 30 min to either control isotonic or hypotonic low [C1^−] conditions, then treated in the same conditions for an additional 30 min with the indicated inhibitors at the concentrations noted. Cell lysates were subjected to SDS-PAGE and Western blotting with the indicated antibodies. See FIG. 3 for Western blot quantitation.\n(§4) Referring to FIG. 2, concentration-response experiments testing effects of Closantel analogs on phosphorylation of KCC2 Thr906/Thr1007 are shown. HEK293 cells were transfected with DNA construct encoding wild type N-terminally FLAG-tagged KCC2. 36 h post-transfection, cells were exposed 30 min to either control isotonic conditions or hypotonic low Cl^− conditions, then treated in the same conditions with the specified inhibitors (1b, 1c, 1f, 1d, 1h, and 1g, respectively) at the indicated concentrations for an additional 30 min. Lysates were subjected to SDS-PAGE and Western blotting with the indicated antibodies.\n(§5) Referring to FIG. 3, HEK293 cells were transfected with the DNA construct encoding wild type N-terminally FLAG-tagged KCC2. 36 h post-transfection, cells were exposed 30 min to either control isotonic or hypotonic low Cl^− conditions, then treated in the same conditions with the specified inhibitors at the indicated concen-trations for an additional 30 min. Lysates were subjected to SDS-PAGE and Western blotting with the indicated antibodies. Closantel, STOCK1S-14279 and STOCK1S-50699 were used as reference compounds."}, "KCC2 pThr906": {"system": "KCC2 pThr906", "assay": "Phosphorylation immunoblot in KCC2-transfected HEK293 cells", "type": "cell-based, human", "details": "concentration inhibiting phosphorylation", "protocol": "as §1, §2, §3, §4, §5"}, "SPAK pSer373": {"system": "SPAK pSer373", "assay": "Phosphorylation immunoblot in KCC2-transfected HEK293 cells", "type": "cell-based, human", "details": "concentration inhibiting phosphorylation", "protocol": "as §1, §2, §3, §4, §5"}, "[1]": {"assay": "ZT-1a content in brain and plasma, sham vs tMCAO mice, LC-MS/MS", "type": "in vivo, mouse", "details": "2 hrs post-injection", "protocol": "ZT-1a content in brain homogenates and plasma was assayed at the University of Pittsburgh Small Molecule Biomarker Core, using liquid chromatography-tandem mass spectrometry (LC-MS/MS). C57BL/6j mice (normotensive male, 11 weeks old) at 3 hr post Sham surgery or tMCAO were intraperitoneally injected with 5 mg/kg ZT-1a. At 2 hr post injection, blood was collected into heparin-treated EP tubes by a cardiac puncture. After a brief cardiac perfusion with ice-cold normal saline, brain tissues (contralateral and ipsilateral hemispheres) were collected. Plasma samples were prepared by centrifugation of whole blood for 10 min at 1,500 g using a refrigerated centrifuge. Brain tissues and plasma samples were diluted, and protein was precipitated with acetonitrile prior to detection of ZT-1a with a triple quad mass spectrometer. Glyburide was used as the internal standard. Samples were then injected by autosampler and ZT-1a was eluted from a Waters Acquity UPLC BEH C18, 1.7 um, 2.1×100 mm reversed-phase column with a water (with 0.1% formic acid) and acetonitrile (with 0.1% formic acid) gradient."}, "AMPK (hum)": {"system": "AMPK (hum)", "assay": "Kinase panel (Dundee profiling)", "type": "biochemical, human", "protocol": "The kinase selectivity of ZT-1a was further assessed using standard radioisotopic enzymatic assays against a panel of 140 recombinant kinases (Dundee profiling, Table 2) (Bain et al. (2007) The Biochemical journal 408, 297-315). ZT-1a at a concentration of 10 μM inhibited only MAPKAP-K2 activity 85±7% compared to DMSO control, representing high kinase selectivity.\nReferring to Table 2, ZT-1a was tested at 10 and 1 μM against a panel of 140 recombinant kinases in an enzymatic activity-based assay performed by the International Centre for Kinase Profiling in the MRC Protein Phosphorylation and Ubiquitylation Unit. Values represent % residual kinase activity (mean+/−SEM, n=3). Kinases labelled with an asterick* are inhibited ≥50% by ZT-1a."}},
  "data": [
    {"smiles": "Cc1cc(C(C#N)c2ccc(Cl)cc2)c(Cl)cc1NC(=O)c1cc(Cl)ccc1O", "note": "(stereo not shown) [ZT-1a, 5-chloro-N-(5-chloro-4-((4-chlorophenyl)(cyano)methyl)-2-methylphenyl)-2-hydroxy-benzamide]", "values": [
      {"measurement": "KCC2 pThr1007 (μM) hypo", "setting": "KCC2 pThr1007; hypotonic low Cl- conditions", "result": 3, "unit": "μM"},
      {"measurement": "KCC2 pThr1007 (μM) Iso", "setting": "KCC2 pThr1007; isotonic conditions", "result": 1, "unit": "μM"},
      {"measurement": "KCC2 pThr906 (μM) hypo", "setting": "KCC2 pThr906; hypotonic low Cl- conditions", "result": "3, 3 μM"},
      {"measurement": "KCC2 pThr906 (μM) Iso", "setting": "KCC2 pThr906; isotonic conditions", "result": "3, 3 μM"},
      {"measurement": "SPAK pSer373 (μM) hypo", "setting": "SPAK pSer373; hypotonic low Cl- conditions", "result": 3, "unit": "μM"},
      {"measurement": "SPAK pSer373 (μM) Iso", "setting": "SPAK pSer373; isotonic conditions", "result": 1, "unit": "μM"},
      {"measurement": "brain concentrations, stroke mice vs sham-controls", "setting": "[1]; 5 mg/kg i.p. at 3 hrs after tMCAO, n=10-11", "result": "~1.8", "unit": "fold"},
      {"measurement": "plasma bioavailability, sham control vs ischemic stroke mice", "setting": "[1]; 5 mg/kg i.p., p=0.29", "result": "no significant difference"},
      {"measurement": "% residual kinase activity", "setting": "AMPK (hum); 1 μM", "result": "126 ± 4", "unit": "%"},
      {"measurement": "% residual kinase activity", "setting": "AMPK (hum); 10 μM", "result": "108 ± 4", "unit": "%"}
    ]}
  ]
}
